Experiments:
Type in all cases: in vivo, human
[1] = tested on: ALS patients; test: Studies of the inventors: (2R)-2-propyloctanoic acid used alone in ALS patients; details: without riluzole
[2] = tested on: patients with amyotrophic lateral sclerosis; test: Example 2 clinical study: efficacy measurements; details: 1200 mg once a day oral for 18 months plus standard riluzole; patients less than 14 months from onset of muscular weakness
Procedure: (§1) As a clinical study, double blind placebo-controlled parallel group study was carried out on patients with amyotrophic lateral sclerosis, under the following conditions.
(3) Less than 14 months from onset of muscular weakness;
(§2) (1) Active group: (2R)-2-propyloctanoic acid 1200 mg (four soft capsules comprising 300 mg of (2R)-2-propyloctanoic acid per capsule);
(§3) Both Active and Placebo group are administered for 18 months.
(§4) Riluzole was administered to all subjects in Active and Placebo group in the manner of standard therapy (riluzole 50 mg tablet: one tablet twice a day (before breakfast and dinner), oral daily dose of 100 mg).
(§5) Evaluation method: Slow vital capacity (SVC) of the subject was measured at the following evaluation times. SVC was measured three times in the sitting position, allowing sufficient recovery time between each manoeuvre. The highest SVC value was recorded.
Evaluation method: Functional status of the subject was assessed at the following evaluation times using revised amyotrophic lateral sclerosis functional rating scale (ALSFRS-R) shown in above-mentioned Table 1 to 13.
Evaluation method; Muscle strength of the subject was assessed at the following evaluation times using medical research council scale shown in before-mentioned Table 14. […]
Evaluation method: Death, bronchotomy, and using noninvasive ventilator were recorded for each subject, if and when it occurs. […]

[3] = tested on: patients with amyotrophic lateral sclerosis; test: Example 2 clinical study: safety measurements; details: 1200 mg once a day oral for 18 months plus standard riluzole
Procedure: as §1, §2, §3, §4
Evaluation method: Blood pressure and pulse of the subject were recorded at the following evaluation times.
Evaluation method: 12 lead ECG was conducted at the following evaluation times. Sinus rhythm, RR interval, PR interval, QRS duration, QT/QTc, and so forth were assessed.
Evaluation method: Weight of the subject was measured at the following evaluation times.
Evaluation method: Clinical laboratory test (haematology, biochemistry and urinalysis) of the subject was conducted at the following evaluation times.
(§6) Evaluation method: Incidence and content (e.g., symptom, causal association, etc.) of clinical adverse events were monitored for each subject.

[4] = tested on: patients with amyotrophic lateral sclerosis; test: Example 1 clinical study: respiratory function (slow vital capacity); details: Active group
Procedure: as §1, §2
(§7) Both Active and Placebo groups are administered for 12 months.
(§8) Riluzole was administered to all subjects in Active and Placebo groups in the manner of standard therapy (riluzole 50 mg tablet: one tablet twice a day (before breakfast and dinner), oral daily dose of 100 mg).
as §5
Evaluation time: 1, 2, 4, 6, 8, 10 and 12 month(s) from the start of administration.
Suppression of respiratory disability and improvement in survival rate are shown by oral administration of (2R)-2-propyloctanoic acid in the patient within about 14 months after the onset of muscular weakness (Active group: 55 patients, Placebo group: 54 patients. Both Active and Placebo groups are treated with standard riluzole therapy). Hereinafter, each result is described in detail, […]

[5] = tested on: patients with amyotrophic lateral sclerosis; test: Example 1 clinical study: clinical adverse events; details: Active group, 1200 mg once a day oral for 12 months plus standard riluzole
Procedure: as §1, §2, §7, §8, §6
Evaluation time: Throughout the study.

[6] = tested on: patients with amyotrophic lateral sclerosis; test: Example 1 clinical study: survival; details: Active group, 1200 mg once a day oral for 12 months plus standard riluzole; patients within about 14 months after onset of muscular weakness
Procedure: As a clinical study, double blind placebo-controlled parallel group study was carried out on patients with amyotrophic lateral sclerosis, under the following conditions. […] (1) Active group: (2R)-2-propyloctanoic acid 1200 mg (four soft capsules comprising 300 mg of (2R)-2-propyloctanoic acid per capsule); Both Active and Placebo groups are administered for 12 months. Riluzole was administered to all subjects in Active and Placebo groups in the manner of standard therapy (riluzole 50 mg tablet: one tablet twice a day (before breakfast and dinner), oral daily dose of 100 mg). Evaluation method: Death was recorded for each subject, if and when it occurs. Evaluation time. Throughout the study. Suppression of respiratory disability and improvement in survival rate are shown by oral administration of (2R)-2-propyloctanoic acid in the patient within about 14 months after the onset of muscular weakness (Active group: 55 patients, Placebo group: 54 patients. Both Active and Placebo groups are treated with standard riluzole therapy). Hereinafter, each result is described in detail, […]

## CCCCCC[C@@H](CCC)C(=O)O [(2R)-2-propyloctanoic acid]
[1]
  effect on ALS patients when used alone: cannot exert any satisfactory effect
[2]
  effectiveness on suppressing muscular weakness, suppressing respiratory disability, extending survival period, improvement in quality-of-life measures: shows its effectiveness on at least one of
[3]
  safety in ALS patient: safe
[4]; 1200 mg once a day oral for 12 months plus standard riluzole 100 mg/day, patients within about 14 months after onset of muscular weakness (55 patients)
  reduction of slow vital capacity (% of the predicted value) at 12 months from the start of administration compared to before-administration: 38.27%
[4]; 1200 mg once a day oral plus standard riluzole, patients within about 14 months after onset of muscular weakness, result of estimation
  patients whose slow vital capacity was lowered to 50% or less of predicted in 12 months: about 35 % of patients
[5]
  frequency of adverse event: 89%
  frequency of serious adverse event: 49%
[6]
  mortality in the dosing period: 9 of 55
  survival rate: 84%
